Reference: patent US8580821B2, “Serotonin transporter (SERT) inhibitors for the treatment of depression and anxiety” (Hoffmann-La Roche Inc., priority 2006, dated 2013)
Structures can show the parent of a compound that is named as a salt. Where two headings read alike, the source gives them in different places.

Legend:
recombinant human SERT = biological target: T1, recombinant human SERT (Homo sapiens, UniProt P31645); experiment: hSERT SPA binding assay ([3H]citalopram displacement, HEK-293 membranes)
T1 construct: expressed in transfected cells
T1 sequence (P31645 whole entry): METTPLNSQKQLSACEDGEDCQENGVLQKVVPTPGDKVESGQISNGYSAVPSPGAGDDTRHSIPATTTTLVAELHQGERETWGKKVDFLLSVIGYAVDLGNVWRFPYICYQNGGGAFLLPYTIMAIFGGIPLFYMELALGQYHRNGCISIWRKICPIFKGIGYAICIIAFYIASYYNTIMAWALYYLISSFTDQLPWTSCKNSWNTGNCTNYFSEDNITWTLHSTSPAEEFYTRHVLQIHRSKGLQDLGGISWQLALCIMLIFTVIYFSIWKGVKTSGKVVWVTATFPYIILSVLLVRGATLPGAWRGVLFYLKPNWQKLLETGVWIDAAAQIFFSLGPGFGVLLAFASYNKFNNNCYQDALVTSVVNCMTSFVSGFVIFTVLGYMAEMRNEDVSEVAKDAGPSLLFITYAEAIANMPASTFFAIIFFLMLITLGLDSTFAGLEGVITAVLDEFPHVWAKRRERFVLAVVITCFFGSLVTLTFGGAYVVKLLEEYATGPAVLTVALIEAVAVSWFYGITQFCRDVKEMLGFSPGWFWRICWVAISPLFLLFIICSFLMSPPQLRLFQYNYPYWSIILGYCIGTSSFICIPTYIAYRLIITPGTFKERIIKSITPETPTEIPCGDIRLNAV
Protocol: HEK-293 cells stably expressing recombinant human SERT are maintained with DMEM high glucose with 10% FBS, 300 μg/ml G418 and 2 mM L-Glutamine and incubated at 37° C. with 5% CO2. Cells are released from culture flasks using PBS for 1-2 min. The cells are subsequently centrifuged at 1000 g's for 5 min and resuspended in PBS prior to being used in the membrane preparation.
Cells are homogenized using a Polytron in 50 mM Tris (pH 7.4). Centrifuged at 48,000×g for 15 min, and the pellet resuspended in fresh buffer. After a second centrifugation, the pellet is re-homogenized and resuspended in fresh buffer. Typically, membrane portions are aliquoted in 3 mg/ml (w:v). and stored at 80° C.
A serial dilution of test compounds in 50 mM Tris-HCl, 120 mM NaCl, KCl 5 mM (pH 7.4) is made in a white Optiplate (Packard) (100 μl/well) and the radioligand ^3[H] Citalopram (Specific activity: 60-86 Ci/mmol, Final concentration: 1 nM) is added at 50 μl/well. Membrane and beads are prepared to a ratio of 5 μg:0.6 mg, with 0.6 mg PVT-WGA Amersham beads (Cat# RPQ0282V) added per well. 50 μl of the membrane/bead mixture is added to the assay plate for a final volume of 200 μl. The mixtures are allowed to stand at room temperature for one hour, and are then counted on a Packard TopCount.
The inhibition dissociation constant (Ki) of each compound is determined according to the method of Cheng-Prusoff.

human NK-1 receptor = biological target: T2, human NK-1 receptor (Homo sapiens, UniProt P25103); experiment: hNK-1 binding assay ([3H]substance P displacement, transfected CHO cells)
T2 construct: expressed in transfected cells; host or cells: CHO cells, Semliki virus expression system; membrane suspension
T2 sequence (P25103 whole entry): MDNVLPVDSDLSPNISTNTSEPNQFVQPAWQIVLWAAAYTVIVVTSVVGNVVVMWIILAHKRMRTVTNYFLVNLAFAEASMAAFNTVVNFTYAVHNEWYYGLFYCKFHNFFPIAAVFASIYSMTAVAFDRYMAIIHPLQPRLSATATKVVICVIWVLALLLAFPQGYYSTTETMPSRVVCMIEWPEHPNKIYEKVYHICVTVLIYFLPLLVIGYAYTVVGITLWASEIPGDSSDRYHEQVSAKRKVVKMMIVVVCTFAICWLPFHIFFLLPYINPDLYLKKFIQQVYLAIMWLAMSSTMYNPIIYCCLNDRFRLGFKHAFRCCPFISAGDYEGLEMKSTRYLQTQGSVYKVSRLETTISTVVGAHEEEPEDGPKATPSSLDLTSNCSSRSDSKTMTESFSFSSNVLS
Protocol: The affinity of test compounds for the NK-1 receptor was evaluated at human NK-1 receptors in CHO cells transfected with the human NK-1 receptor using the Semliki virus expression system and radiolabelled with [^3H]substance P (final concentration 0.6 nM). Binding assays were performed in HEPES buffer (50 mM, pH 7.4) containing BSA (0.04%) leupeptin (8 μg/ml), MnCl2 (3 mM) and phosphoramidon (2 μM). Binding assays consisted of 250 μl of membrane suspension (1.25×10^5 cells/assay tube), 125 μl of buffer of displacing agent and 125 μl of [^3H]substance P. Displacement curves were determined with at least ten concentrations of the compound. The assay tubes were incubated for 60 min at room temperature after which time the tube contents were rapidly filtered under vacuum through GF/C filters presoaked for 60 min with PEI (0.3%) with 2×2 ml washes of HEPES buffer (50 mM, pH 7.4). The radioactivity retained on the filters was measured by scintillation counting. All assays were performed in duplicate in at least 2 separate experiments.
The inhibition dissociation constant (Ki) of each compound for NK1 is determined as described above for hSERT.

[1] = read-out: pKi hSERT (converted)
[2] = [3H]substance P 0.6 nM, CHO cells transfected with human NK-1 receptor, read-out: pKi hNK1 (converted)

Structure (SMILES) | Ki (recombinant human SERT; [1]) [µM] | Ki (human NK-1 receptor; [2]) [µM] | Ki (human NK-1 receptor) [µM] | Ki (recombinant human SERT) [µM]
FC(F)(F)c1cc(COC[C@@H]2CNCC[C@H]2c2ccccc2)cc(C(F)(F)F)c1 (racemic) [Example 5 of I, (3SR,4RS)-3-(3,5-Bis-trifluoromethyl-benzyloxymethyl)-4-phenyl-piperidine hydrochloride] | 0.011 | 0.00891 |  | 
Cc1ccccc1[C@@H]1CCNC[C@H]1COCc1cc(C(F)(F)F)cc(C(F)(F)F)c1 (relative stereo) [Example 6 of I, (−)-(trans)-3-(3,5-Bis-trifluoromethyl-benzyloxymethyl)-4-o-tolyl-piperidine hydrochloride] | 0.0324 | 0.024 |  | 
Fc1ccc([C@@H]2CCNC[C@H]2COCc2cc(C(F)(F)F)cc(C(F)(F)F)c2)cc1 [Example 1 of I, (−)-(3S,4R)-3-(3,5-Bis-trifluoromethyl-benzyloxymethyl)-4-(4-fluoro-phenyl)-piperidine hydrochloride] | 0.00617 |  | 0.0126 | 
Fc1ccc([C@@H]2CCNCC2CNCc2cc(C(F)(F)F)cc(C(F)(F)F)c2)cc1 (stereo partly shown) [Example 1 of III, reference compound] | 0.724 | 0.0126 |  | 
CC(=O)N(Cc1cc(C(F)(F)F)cc(C(F)(F)F)c1)C[C@@H]1CNCC[C@H]1c1ccc(F)cc1 [Example 3 of III, reference compound] | 10 | 0.0138 |  | 
Fc1ccc([C@@H]2CCNC[C@H]2COCc2cccc(C(F)(F)F)c2)cc1 [Example 4 of I, (−)-(3S,4R)-4-(4-Fluoro-phenyl)-3-(3-trifluoromethyl-benzyloxymethyl)-piperidine hydrochloride] |  | 0.148 |  | 0.017
CS(=O)(=O)N(Cc1cc(C(F)(F)F)cc(C(F)(F)F)c1)C[C@@H]1CNCC[C@H]1c1ccc(F)cc1 [Example 4 of III, reference compound] | 10 | 0.0302 |  | 
Cc1ccccc1C1=C(COCc2cc(C(F)(F)F)cc(C(F)(F)F)c2)CNCC1 [Example 7 of I, 5-(3,5-Bis-trifluoromethyl-benzyloxymethyl)-4-o-tolyl-1,2,3,6-tetrahydro-pyridine hydrochloride] | 0.0324 |  | 0.00316 | 

More lines, main results first:

Ki (recombinant human SERT; [1]) [µM] | Ki (human NK-1 receptor; [2]) [µM] | Structure (SMILES) | Ki (human NK-1 receptor) [µM] | Ki (recombinant human SERT) [µM]
3.02 | 0.0631 | [O-][S+](Cc1cc(C(F)(F)F)cc(C(F)(F)F)c1)C[C@@H]1CNCC[C@H]1c1ccc(F)cc1 (stereo partly shown) [Example 2 of II, reference compound] |  | 
0.708 | 0.0204 | CN(Cc1cc(C(F)(F)F)cc(C(F)(F)F)c1)C[C@@H]1CNCC[C@H]1c1ccc(F)cc1 [Example 2 of III, reference compound] |  | 
0.107 | 0.00813 | CN1CC[C@@H](c2ccc(F)cc2)[C@H](COCc2cc(C(F)(F)F)cc(C(F)(F)F)c2)C1 [Example 2 of I] |  | 
0.141 | 0.0214 | N#CCN1CC[C@@H](c2ccc(F)cc2)[C@H](COCc2cc(C(F)(F)F)cc(C(F)(F)F)c2)C1 [Example 3 of I, (−)-[(3S,4R)-3-(3,5-Bis-trifluoromethyl-benzyloxymethyl)-4-(4-fluoro-phenyl)-piperidin-1-yl]-acetonitrile] |  | 
 | 0.0135 | O=S(=O)(Cc1cc(C(F)(F)F)cc(C(F)(F)F)c1)C[C@@H]1CNCC[C@H]1c1ccc(F)cc1 [Example 3 of II, reference compound] |  | 
